One series addresses RXRα (Homo sapiens, UniProt P19793). The note with it: CV-1 cells, 20 hours, luciferase. The procedure: To determine whether a RXR agonist can mediate its effects via RXRα receptor homodimers, RXRβ receptor homodimers, RXRγ receptor homodimers, or any combination thereof, or the corresponding RAR/RXR heterodimers, receptor-mediated transactivation assays were performed. For transactivation assays assessing RXR homodimer signaling, CV-1 cells were transfected with 1) an expression construct including a full length RXRα, RXRβ, or RXRγ; and 2) a rCRBPII/RXRE-tk-Luc reporter construct that included RXR homodimer-specific RXRE/DR1 responsive element linked to a luciferase gene. For transactivation assays assessing RAR/RXR heterodimer signaling, CV-1 cells were transfected with 1) an expression construct comprising a fusion protein including an estrogen receptor (ER) DNA binding domain linked to the ligand binding domain of RARα, RARβ, or RARγ and 2) a ERE-tk-Luc reporter construct that included an estrogen receptor responsive element linked to a luciferase gene. […] Data are mean values±SE from five independent experiments.

Another series addresses T1, RXRγ (Homo sapiens, UniProt P48443).
T1 construct: an expression construct including a full length RXRα, RXRβ, or RXRγ; expressed in transfected cells; host or cells: CV-1
Briefly: RXR homodimer transactivation assay (rCRBPII/RXRE-tk-Luc reporter) in CV-1 cells. The class given is cell-based.

A further series concerns the target T2, FXR/RXR (Homo sapiens, UniProt P19793).
T2 construct: expressed in transfected cells; host or cells: CV-1
In words: Permissive heterodimer transactivation assay, CV-1 cells, 3x(IBABP/IRI)-tk-Luc. The note with it: 20 hr; relative to GW4064. In kind it is cell-based. From the text: (§1) For PPARγ: CV-1 cells were transfected with 3×(rAOX/DR1)-tk-Luc reporter gene and an expression vector for PPARγ. For FXR:CV-1 cells were transfected with 3×(IBABP/IRI)-tk-Luc reporter gene and vectors for FXR and RXRα. For LXR:CV-1 cells were transfected with 3×(PLTP/LXRE)-tk-Luc reporter gene with vectors for LXRα or LXRβ. For Nurr1: COS7 cells were transfected with 3×NBRE-tk-luc reporter gene and full length Nurr-1 with or without full-length RXRα plasmid. […] Luciferase data were normalized to co-transfected β-gal activity. Luciferase activity was expressed as percent of maximal activity obtained using specific agonists. Rosiglitazone (PPARγ), GW4064 (FXR), T0901317 (LXR).

In the next series the test system is LXRα/RXR. In words: Permissive heterodimer transactivation assay, CV-1 cells, 3x(PLTP/LXRE)-tk-Luc. The class given is cell-based. The following applies: 20 hr; relative to T0901317.
Excerpt: as §1

A further series concerns LXRβ/RXR. The description is as above. In kind it is cell-based. The note with it: 20 hr; relative to T0901317.
Excerpt: as §1

For the next series, the target named is Nurr1/RXR (Homo sapiens, UniProt P19793). In words: Permissive heterodimer transactivation assay, COS7 cells, 3xNBRE-tk-luc. In kind it is cell-based. The note with it: Nurr-1 with RXRα.
Excerpt: as §1

The next series concerns H446. In words: In vitro growth inhibition, soft-agar. The class given is cell-based. The procedure:
(§2) The inhibition of growth was tested in a variety of cancer cell lines.
(§3) All cell lines were obtained from American Type Culture Collection (ATCC, Manassas, Va.) and culture media and supplements were supplied by ATCC and Invitrogen (Carlsbad, Calif.). The ATP assay was performed using […]-GLO Luminescent Cell Viability Assay Kit from Promega (Madison, Wis.) which allows ATP to be roughly quantified based on the […] emitted by the cells. Luminescence was recorded using VICTOR-22 1420 (Perkin Elmer, Waltham, Mass.).
(§4) The soft-agar coupled thymidine incorporation assay is used to determine the ability of cells to form colonies through invasion into agar matrix. A bottom feeder layer of cells was composed of 0.6% NUSIEVE GTG agarose (Cambrex, East Rutherford, N.J.), D-MEM with low glucose, 2 mM L-glutamine, and 15% charcoal/dextran-treated FBS. Test cells were seeded in the top soft-agar layer containing 0.3% NUSIEVE GTG agarose, D-MEM (low glucose), 2 mM L-glutamine, and 15% charcoal/dextran-treated FBS at a density of 10,000-20,000 cells per well. Test cells were labeled with [^3H] thymidine at 50 nM. Labeled cells were collected and counted as described above.
(§5) For the soft-agar colony formation assay, cells were cultured in 6-well plates containing two agar layers with growth medium. The bottom feeder layer contained 0.5% DIFCO Noble Agar (Becton Dickinson & Co., East Rutherford, N.J.), D-MEM with low glucose and 2 mM L-glutamine, and 15% charcoal/dextran-treated FBS. Test cells were seeded in the top soft-agar layer containing 0.3% agarose, D-MEM (low glucose), 2 mM L-glutamine, and 15% charcoal/dextran-treated FBS at a density of 10,000 cells per well. After treatment with drugs, cell colonies were counted under a light microscope.
(§6) Efficacy is the maximal inhibition of cell growth at the maximal concentration used in the studies. ND means the results were not determined.

The subject of series [1] is T47D. In words: In vitro growth inhibition, soft-agar. In kind it is cell-based. The procedure: as §2, §3, §4, §5, §6
For another series, the system named is A-427. In words: In vitro growth inhibition, ATP assay ([…]-GLO). The class given is cell-based. The procedure: as §2, §3, §6
The test system of a further series is HT-3. Briefly: In vitro growth inhibition, ATP assay ([…]-GLO). In kind it is cell-based. The procedure:
as §2, §3, §6

A further series relates to HuT 78. In words: In vitro growth inhibition, ATP assay ([…]-GLO). The class given is cell-based. The procedure: as §2, §3, §6
The next series relates to MCF-7. Briefly: In vitro growth inhibition, ATP assay ([…]-GLO). In kind it is cell-based. As to the method:
as §2, §3, §6

The next series has as its system ME-180. In words: In vitro growth inhibition, ATP assay ([…]-GLO). The class given is cell-based. The procedure: as §2, §3, §6
The test system of another series is SK-BR-3. In words: In vitro growth inhibition, ATP assay ([…]-GLO). The class given is cell-based. The procedure: as §2, §3, §6
The next series has as its system SW403. In words: In vitro growth inhibition, ATP assay ([…]-GLO). The class given is cell-based. As to the method:
as §2, §3, §6

The subject of the next series is SiHa. Briefly: In vitro growth inhibition, ATP assay ([…]-GLO). In kind it is cell-based. The procedure:
as §2, §3, §6

Series [2] has as its system T47D. In words: In vitro growth inhibition, ATP assay ([…]-GLO). The class given is cell-based. The procedure:
as §2, §3, §6

For another series, the system named is U937. In words: In vitro growth inhibition, ATP assay ([…]-GLO). The class given is cell-based. As to the method:
as §2, §3, §6

The test system of another series is H-82. Briefly: In vitro growth inhibition, [3H] thymidine incorporation. The class given is cell-based. The procedure: as §2, §3
(§7) The thymidine incorporation assay allows for specific detection of [^3H]-labeled thymidine (Perkin-Elmer) incorporated into newly synthesized DNA. Labeled cells were collected and their DNA was harvested on to a fiberglass filter using MLR24 Cell Harvester (Brandel, Geithersburg, Md.). The amount of incorporated [^3H] thymidine was determined by scintillation counting using Trilux-1450 Microbeta Counter (Perkin-Elmer).
as §6
In general terms: Incorporation of labelled thymidine or its analogues reports DNA synthesis.

The next series has as its system HL-60. Described as above. In kind it is cell-based. The procedure:
as §2, §3, §7, §6

The test system of another series is SW48. In words: In vitro growth inhibition, cell counting. The note with it: SW48, Colon, maximal inhibition at 1 μM. In kind it is cell-based.
The subject of series [3] is refractory malignancies (progressive, solid tumors). Briefly: Phase I/II study of IRX4204 in refractory malignancies. The class given is in vivo, Humans. From the text:
Data was collected for 18 patients with progressive, solid tumors.

The conditions of series [4]: cited from earlier work.
Where [5] appears, read: Homo sapiens, Breast ER-positive.

This is an account of results in patent US20190365681A1, “TREATMENT OF CANCER WITH COMBINATIONS OF RXR AGONISTS AND THYROID HORMONES” (Io Therapeutics, Inc., priority 2015, published 2019).

By IC50 is commonly meant the point on the concentration scale where inhibition reaches its midpoint. A word on the Cmax: it is the highest concentration seen after dosing.

SMILES strings stand for the structures. Entries after “also recorded” stand apart in the source; their conditions may differ. Where two headings read alike, the source gives them in different places.

T2 sequence (Q96RI1 whole entry partner): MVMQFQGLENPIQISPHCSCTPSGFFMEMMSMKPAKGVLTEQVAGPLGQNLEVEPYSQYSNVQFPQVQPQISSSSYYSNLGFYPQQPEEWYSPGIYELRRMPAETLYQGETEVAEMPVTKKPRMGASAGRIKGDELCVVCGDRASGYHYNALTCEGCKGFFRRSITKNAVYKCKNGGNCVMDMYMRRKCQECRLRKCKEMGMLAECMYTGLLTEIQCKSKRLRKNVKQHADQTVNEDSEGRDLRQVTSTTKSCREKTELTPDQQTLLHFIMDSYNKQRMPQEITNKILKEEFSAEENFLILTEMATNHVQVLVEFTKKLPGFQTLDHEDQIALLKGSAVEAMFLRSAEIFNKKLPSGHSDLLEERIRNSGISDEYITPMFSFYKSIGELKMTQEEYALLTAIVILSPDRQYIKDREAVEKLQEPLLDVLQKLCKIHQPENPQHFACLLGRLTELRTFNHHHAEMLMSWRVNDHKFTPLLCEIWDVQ
T2 sequence (P19793 whole entry): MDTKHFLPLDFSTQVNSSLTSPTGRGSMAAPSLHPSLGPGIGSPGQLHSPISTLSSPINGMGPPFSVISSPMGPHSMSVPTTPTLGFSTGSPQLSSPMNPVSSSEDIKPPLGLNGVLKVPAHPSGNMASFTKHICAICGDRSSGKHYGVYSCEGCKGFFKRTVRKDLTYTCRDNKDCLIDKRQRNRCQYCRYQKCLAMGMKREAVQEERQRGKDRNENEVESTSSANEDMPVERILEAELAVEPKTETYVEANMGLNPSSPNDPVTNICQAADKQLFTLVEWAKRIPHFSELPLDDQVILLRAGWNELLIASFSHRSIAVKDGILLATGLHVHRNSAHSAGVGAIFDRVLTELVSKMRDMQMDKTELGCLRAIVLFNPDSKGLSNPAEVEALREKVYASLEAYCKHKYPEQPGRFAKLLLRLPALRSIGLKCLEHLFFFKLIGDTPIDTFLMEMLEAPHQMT
Sequence of RXRα (P19793 whole entry, the tested form may be a part): as the sequence (P19793 whole entry) above
T1 sequence (P48443 whole entry): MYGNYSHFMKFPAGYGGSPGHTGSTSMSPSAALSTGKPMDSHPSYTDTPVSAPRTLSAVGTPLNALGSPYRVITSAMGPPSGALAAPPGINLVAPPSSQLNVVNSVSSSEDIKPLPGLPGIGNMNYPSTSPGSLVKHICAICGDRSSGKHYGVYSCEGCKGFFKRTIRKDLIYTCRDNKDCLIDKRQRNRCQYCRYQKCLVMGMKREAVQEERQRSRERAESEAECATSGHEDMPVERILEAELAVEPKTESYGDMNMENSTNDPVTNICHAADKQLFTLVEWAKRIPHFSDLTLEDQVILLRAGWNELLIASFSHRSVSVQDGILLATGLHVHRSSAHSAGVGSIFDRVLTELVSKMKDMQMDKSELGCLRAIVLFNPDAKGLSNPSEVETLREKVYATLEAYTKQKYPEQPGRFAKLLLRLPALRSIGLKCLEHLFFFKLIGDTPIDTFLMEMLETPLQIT
Sequence of Nurr1/RXR (P43354 whole entry partner): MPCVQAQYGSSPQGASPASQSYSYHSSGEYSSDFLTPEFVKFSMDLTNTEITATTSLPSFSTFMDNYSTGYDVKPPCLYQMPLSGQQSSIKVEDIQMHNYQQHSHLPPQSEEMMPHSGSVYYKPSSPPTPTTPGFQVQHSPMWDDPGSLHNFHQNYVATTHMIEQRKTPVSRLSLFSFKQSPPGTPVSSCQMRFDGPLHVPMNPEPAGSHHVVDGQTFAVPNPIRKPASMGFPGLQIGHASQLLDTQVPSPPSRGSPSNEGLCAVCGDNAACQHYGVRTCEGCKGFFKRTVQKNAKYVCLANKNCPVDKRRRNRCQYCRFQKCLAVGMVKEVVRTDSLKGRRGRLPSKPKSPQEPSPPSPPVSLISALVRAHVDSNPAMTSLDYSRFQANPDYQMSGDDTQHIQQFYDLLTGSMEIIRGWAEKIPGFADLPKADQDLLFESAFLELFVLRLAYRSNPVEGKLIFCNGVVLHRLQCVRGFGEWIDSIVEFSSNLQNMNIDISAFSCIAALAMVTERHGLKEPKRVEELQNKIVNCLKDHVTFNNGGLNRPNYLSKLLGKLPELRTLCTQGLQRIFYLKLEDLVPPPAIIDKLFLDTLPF
Sequence of Nurr1/RXR (P19793 whole entry): as the sequence (P19793 whole entry) above
Protocol for RXRγ: To determine whether a RXR agonist can mediate its effects via RXRα receptor homodimers, RXRβ receptor homodimers, RXRγ receptor homodimers, or any combination thereof, or the corresponding RAR/RXR heterodimers, receptor-mediated transactivation assays were performed. For transactivation assays assessing RXR homodimer signaling, CV-1 cells were transfected with 1) an expression construct including a full length RXRα, RXRβ, or RXRγ; and 2) a rCRBPII/RXRE-tk-Luc reporter construct that included RXR homodimer-specific RXRE/DR1 responsive element linked to a luciferase gene. For transactivation assays assessing RAR/RXR heterodimer signaling, CV-1 cells were transfected with 1) an expression construct comprising a fusion protein including an estrogen receptor (ER) DNA binding domain linked to the ligand binding domain of RARα, RARβ, or RARγ and 2) a ERE-tk-Luc reporter construct that included an estrogen receptor responsive element linked to a luciferase gene. The ER-RAR fusion proteins provided an accurate readout of only the transfected ER-RAR. […] Data are mean values±SE from five independent experiments.

On to `CC(/C=C/[C@@H]1C[C@]1(C)c1ccc2c(c1)C(C)(C)CCC2(C)C)=C\C(=O)O` [IRX4204, 3,7-dimethyl-6(S),7(S)-methano,7-[1,1,4,4-tetramethyl-1,2,3,4-tetrahydronaphth-7-yl]2(E),4(E) heptadienoic acid], for which the “Efficacy (% of 1 μM IRX4204) RXRα” value on RXRα is recorded as 100 % of 1 μM IRX4204. In addition, the “Efficacy (% of 1 μM IRX4204) RXRγ” value on RXRγ is 0.09 ± 0.01 100 % of 1 μM IRX4204. Also, the “activation of FXR/RXR heterodimer” value on FXR/RXR is recorded as “not to transactivate; also recorded: does not activate”. Besides, the “activation of LXRα/RXR heterodimer” value in the series on LXRα/RXR is given as “not to transactivate; also recorded: does not activate”. Further, the “activation of LXRβ/RXR heterodimer” value with LXRβ/RXR is given as “not to transactivate; also recorded: does not activate”. For the same molecule, the “activation of Nurr1/RXR permissive heterodimer” value at Nurr1/RXR is “selectively activates”. Moreover, the “Efficacy (Conc.)” value in the series on H446 (H446, Soft-Agar, maximal inhibition at 1 μM) was found to be 44%; in the series on T47D [1] (maximal inhibition at 10 μM), 97%; in the series on A-427 (A-427, ATP, maximal inhibition at 10 μM) it was 50%; in the series with HT-3 (HT-3, ATP, maximal inhibition at 1 μM), 68%; in the series with HuT 78 (HuT 78, ATP, maximal inhibition at 1 μM) it was 81%; in the series on MCF-7 (MCF-7, ATP, maximal inhibition at 1 μM), 52%. The “Efficacy (Conc.)” value is 80% in the series on ME-180 (ME-180, ATP, maximal inhibition at 1 μM); 74% with SK-BR-3 (SK-BR-3, ATP, maximal inhibition at 1 μM); 35% in the series with SW403 (SW403, ATP, maximal inhibition at 1 μM); 41% in the series with SiHa (maximal inhibition at 1 μM); 97% in the series with T47D [2] (maximal inhibition at 1 μM); 94% in the series with U937 (U937, ATP, maximal inhibition at 1 μM). For the same molecule, the “Efficacy (Conc.)” value in the series on H-82 (H-82, thymidine incorporation, maximal inhibition at 1 μM) is listed as 72%; in the series on HL-60 (HL-60, thymidine incorporation, maximal inhibition at 1 μM), 94%; in the series on SW48 it was 60%. Besides, the 50% inhibitory concentration (IC50) was 17 nM in the series on H446 (Homo sapiens, NCI-H446, H446, Small Cell Lung Cancer, Soft-Agar); 12.6 nM in the series on T47D [1] (setting [5]); 7.7 nM in the series with A-427 (Homo sapiens, A-427, Non-Small Cell Lung Cancer, ATP); under 1000 nM in the series with HT-3 (Homo sapiens, HT-3, Cervical, ATP); 1.6 nM in the series with HuT 78 (Homo sapiens, HuT78, HuT 78, Cutaneous T-Cell Lymphoma, ATP, 50% of maximal inhibition); 52 nM in the series with MCF-7 (Homo sapiens, MCF7, MCF-7, Breast ER-positive, ATP). In addition, the IC50 in the series on ME-180 (Homo sapiens, ME-180, Cervical, ATP) worked out at 7 nM; in the series on SK-BR-3 (Homo sapiens, SK-BR-3, Breast ER-negative, ATP) it was 3 nM; in the series on SW403 (Homo sapiens, SW-403, SW403, Colon, ATP), 0.78 nM; in the series on SiHa (Homo sapiens, Cervical) it was 47 nM; in the series with T47D [2] (setting [5]) it was 75 nM; in the series with U937 (Homo sapiens, U-937, U937, Leukemia, ATP), 0.73 nM. The 50% inhibitory concentration (IC50) worked out at 3.6 nM in the series on H-82 (Homo sapiens, NCI-H82, H-82, Small Cell Lung Cancer, [H3] Thymidine Incorporation) and 15 nM in the series on HL-60 (Homo sapiens, HL-60, Leukemia, [H3] Thymidine Incorporation). In addition, in series [3] (18 patients with progressive, solid tumors, 9 patients), the “patients who did not exhibit tumor progression for at least four months” value stood at 50%. Moreover, in [3] (patients, once-daily oral 3, 6, 12, 24 mg/m^2, minimum four weeks), the adverse events recorded result is “triglyceride elevation and hypothyroidism”. The “serious adverse events related to IRX4204” value in series [3] (patients, once-daily oral 3, 6, 12, 24 mg/m^2, minimum four weeks, 18 patients) was “no serious adverse events considered possibly or probably related to IRX4204”.

Consider `C=C(c1ccc(C(=O)O)cc1)c1cc2c(cc1C)C(C)(C)CCC2(C)C` [bexarotene, 4-[1-(3,5,5,8,8-pentamethyl-6,7-dihydronaphthalen-2-yl)ethenyl]benzoic acid], for which the maximum concentration (Cmax) is about 8 µM in series [4] (dose of 400 mg/m^2/d, read-out: Cmax in the blood (estimated)) and about 2 µM in [4] (lower dose 225 mg/m^2/d, read-out: Cmax (estimated)).
